Laboratory results taken from patent US9962369B2, “Methods and compositions for transdermal delivery” (SPRAYABLE HOLDINGS, INC., priority 2014, dated 2018).

Experiment: Transdermal delivery of melatonin: plasma level of melatonin after applying composition to skin of a subject
Details: human, plasma, topical, Plasma level of melatonin; for concentration at 1 h: 1 hr after transdermal administration; for concentration at 2 h: 2 hr after transdermal administration; for concentration at 4 h: 4 hr after transdermal administration; for concentration at 8 h: 8 hr after transdermal administration; for concentration at 0 h: 0 hr after transdermal administration
[1] = 3 mg, salt of tryptophan isopropyl ester, A− = Cl^−, 247.52 mM, 0.30 mL applied
[2] = 3 mg, salt of tryptophan isopropyl ester, A− = F^−, 262.85 mM, 0.30 mL applied
[3] = 3 mg, salt of tryptophan isopropyl ester, A− = I^−, 187.04 mM, 0.30 mL applied
[4] = 3 mg, salt of tryptophan isopropyl ester, A− = Lactate ion, 208.11 mM, 0.30 mL applied
[5] = 0.3 mL of 1% melatonin in water, Tryptophan isopropyl ester hydrochloride 247.52 mM, 0.3 mL applied to skin
[6] = 0.3 mL of 1% melatonin in water, salt of tyrosine isopropyl ester, A− = Benzoate ion, 202.65 mM, 0.30 mL applied
[7] = 0.3 mL of 1% melatonin in water, salt of tyrosine isopropyl ester, A− = Lactate ion, 221.97 mM, 0.30 mL applied
[8] = 2 mL of […] melatonin suspension in water, Table 21 control, A− N/A, helper esters 0 mM, 2.0 mL applied
[9] = 2 mL of […] melatonin suspension, Helper esters: None (0 mM), 2.0 mL applied to skin
[10] = 2-(Dibutylamino)ethyl 2-acetoxybenzoate hydrochloride 188.23 mM, 0.375 mL applied to skin
[11] = 2-(Diethylamino)ethyl 2-acetoxybenzoate hydrochloride 221.69 mM, 0.375 mL applied to skin
[12] = 3-(Diethylamino)propyl 2-acetoxybenzoate hydrochloride 212.24 mM, 0.375 mL applied to skin
[13] = 6-(Dimethylamino)hexyl 2-acetoxybenzoate hydrochloride 203.56 mM, 0.375 mL applied to skin
[14] = Proline hexyl ester hydrochloride 296.94 mM, 0.60 mL applied to skin
[15] = Proline isopropyl ester hydrochloride 361.41 mM, 0.60 mL applied to skin
[16] = Proline methyl ester hydrochloride 422.66 mM, 0.60 mL applied to skin
[17] = salt of tryptophan isopropyl ester, A− = Lactate ion, 208.11 mM, 0.30 mL applied
[18] = salt of tyrosine isopropyl ester, A− = AcO^−, 245.0 mM, 0.30 mL applied
[19] = salt of tyrosine isopropyl ester, A− = Benzoate ion, 202.65 mM, 0.30 mL applied
[20] = salt of tyrosine isopropyl ester, A− = Br^−, 230.16 mM, 0.30 mL applied
[21] = salt of tyrosine isopropyl ester, A− = Citrate ion, 168.49 mM, 0.30 mL applied
[22] = salt of tyrosine isopropyl ester, A− = Cl^−, 269.51 mM, 0.30 mL applied
[23] = salt of tyrosine isopropyl ester, A− = F^−, 287.91 mM, 0.30 mL applied
[24] = salt of tyrosine isopropyl ester, A− = I^−, 199.43 mM, 0.30 mL applied

COc1ccc2[nH]cc(CCNC(C)=O)c2c1 [Melatonin]
1.3 ng/mL: concentration at 4 h [14] | concentration at 4 h [16] | concentration at 8 h [16]
21.8 ng/mL: concentration at 8 h [18]
2.6 ng/mL: concentration at 1 h [2] | concentration at 8 h [2] | concentration at 2 h [11] | concentration at 8 h [20]
1.4 ng/mL: concentration at 1 h [15] | concentration at 2 h [15] | concentration at 8 h [15] | concentration at 2 h [16]
2.8 ng/mL: concentration at 2 h [1] | concentration at 2 h [2] | concentration at 8 h [22] | concentration at 2 h [23] | concentration at 4 h [23]
1.2 ng/mL: concentration at 2 h [14] | concentration at 8 h [14] | concentration at 1 h [16]
2 ng/mL: concentration at 2 h [6] | concentration at 4 h [7] | concentration at 2 h [17] | concentration at 2 h [18] | concentration at 1 h [21] | concentration at 8 h [21]
1.6 ng/mL: concentration at 8 h [7] | concentration at 1 h [10] | concentration at 8 h [10] | concentration at 1 h [19]
1.1 ng/mL: concentration at 1 h [14]
2.2 ng/mL: concentration at 4 h [3] | concentration at 2 h [12] | concentration at 4 h [21] | concentration at 1 h [23]
2.5 ng/mL: concentration at 1 h [1] | concentration at 8 h [1] | concentration at 1 h [5] | concentration at 8 h [23]
2.1 ng/mL: concentration at 8 h [3] | concentration at 1 h [12] | concentration at 8 h [12] | concentration at 2 h [13] | concentration at 4 h [13] | concentration at 1 h [22] | concentration at 1 h [24] | concentration at 8 h [24]
1.7 ng/mL: concentration at 8 h [6] | concentration at 1 h [7] | concentration at 1 h [13]
1.8 ng/mL: concentration at 4 h [6] | concentration at 2 h [7] | concentration at 4 h [10] | concentration at 8 h [17] | concentration at 1 h [18]
2.4 ng/mL: concentration at 8 h [11]
2.7 ng/mL: concentration at 4 h [1] | concentration at 4 h [11] | concentration at 2 h [20] | concentration at 4 h [20] | concentration at 4 h [22]
0 ng/mL: concentration at 0 h [2] | concentration at 0 h [3] | concentration at 0 h [4] | concentration at 0 h [5] | concentration at 0 h [7] | concentration at 0 h [8] | concentration at 0 h [10] | concentration at 0 h [11] | concentration at 0 h [12] | concentration at 0 h [13] | concentration at 0 h [14] | concentration at 0 h [15] | concentration at 0 h [16] | concentration at 0 h [18] | concentration at 0 h [19] | concentration at 0 h [20] | concentration at 0 h [21] | concentration at 0 h [22] | concentration at 0 h [23] | concentration at 0 h [24]
2.3 ng/mL: concentration at 1 h [3] | concentration at 2 h [3] | concentration at 1 h [11] | concentration at 4 h [12] | concentration at 1 h [20] | concentration at 2 h [21] | concentration at 2 h [24] | concentration at 4 h [24]
0.1 ng/mL: concentration at 1 h [8] | concentration at 2 h [8] | concentration at 4 h [8] | concentration at 8 h [8] | concentration at 4 h [9] | concentration at 8 h [9]
2.9 ng/mL: concentration at 4 h [2] | concentration at 2 h [22]
1.9 ng/mL: concentration at 1 h [4] | concentration at 2 h [10] | concentration at 8 h [13] | concentration at 4 h [17] | concentration at 4 h [18]
1.5 ng/mL: concentration at 4 h [15]
